Experimental data taken from the NIST ThermoML archive (doi:10.1021/acs.jced.8b00011).
Where “and” joins values, the source holds several entries; their conditions need not be identical. Equal entries are not always repeated.

Settings: Liquid; for mass density: Vibrating tube method; for electrical conductivity: electrochemical impedance spectroscopy

CCCCC[P+](CC)(CC)CC.O=S(=O)([N-]S(=O)(=O)C(F)(F)F)C(F)(F)F
Settings	electrical conductivity	mass density
323.15 K, 5000 kPa	–	1286.05 kg/m3
323.15 K, 10000 kPa	–	1289.93 kg/m3
323.15 K, 15000 kPa	–	1293.65 kg/m3
323.15 K, 20000 kPa	–	1297.31 kg/m3
323.15 K, 25000 kPa	–	1300.84 kg/m3
323.15 K, 30000 kPa	–	1304.31 kg/m3
323.15 K, 35000 kPa	–	1307.72 kg/m3
323.15 K, 40000 kPa	–	1311.03 kg/m3
323.15 K, 45000 kPa	–	1314.23 kg/m3
323.15 K, 50000 kPa	–	1317.43 kg/m3
328.15 K, 101.33 kPa	0.515 S/m and 0.516 S/m	–
333.15 K, 100 kPa	–	1273.44 kg/m3 [middle of 6 runs]
333.15 K, 101.33 kPa	0.598 S/m and 0.6 S/m	–
333.15 K, 1000 kPa	–	1274.41 kg/m3
333.15 K, 5000 kPa	–	1277.68 kg/m3
333.15 K, 10000 kPa	–	1281.66 kg/m3
333.15 K, 15000 kPa	–	1285.53 kg/m3
333.15 K, 20000 kPa	–	1289.3 kg/m3
333.15 K, 25000 kPa	–	1292.91 kg/m3
333.15 K, 30000 kPa	–	1296.47 kg/m3
333.15 K, 35000 kPa	–	1299.98 kg/m3
333.15 K, 40000 kPa	–	1303.38 kg/m3
333.15 K, 45000 kPa	–	1306.68 kg/m3
333.15 K, 50000 kPa	–	1309.96 kg/m3
338.15 K, 101.33 kPa	0.687 S/m and 0.689 S/m	–
343.15 K, 100 kPa	–	1264.95 kg/m3 [middle of 6 runs]
343.15 K, 101.33 kPa	0.784 S/m and 0.786 S/m	–
343.15 K, 1000 kPa	–	1265.61 kg/m3
343.15 K, 5000 kPa	–	1269.03 kg/m3
343.15 K, 10000 kPa	–	1273.12 kg/m3
343.15 K, 15000 kPa	–	1277.12 kg/m3
343.15 K, 20000 kPa	–	1280.98 kg/m3
343.15 K, 25000 kPa	–	1284.76 kg/m3
343.15 K, 30000 kPa	–	1288.39 kg/m3
343.15 K, 35000 kPa	–	1291.99 kg/m3
343.15 K, 40000 kPa	–	1295.5 kg/m3

Settings	electrical conductivity [S/m]	viscosity
323.15 K, 5900 kPa, Frequency=0 MHz	0.411	–
323.15 K, 10600 kPa, Falling or rolling sphere viscometry	–	33.85 mPa·s
323.15 K, 10600 kPa, Frequency=0 MHz	0.393	–
323.15 K, 20500 kPa, Falling or rolling sphere viscometry	–	37.97 mPa·s
323.15 K, 30600 kPa, Falling or rolling sphere viscometry	–	42.53 mPa·s
323.15 K, 40300 kPa, Falling or rolling sphere viscometry	–	47.23 mPa·s
323.15 K, 50500 kPa, Falling or rolling sphere viscometry	–	52.72 mPa·s
323.15 K, 60300 kPa, Falling or rolling sphere viscometry	–	58.3 mPa·s
323.15 K, 77000 kPa, Frequency=0 MHz	0.211	–
323.15 K, 80500 kPa, Falling or rolling sphere viscometry	–	71.43 mPa·s
323.15 K, 100200 kPa, Falling or rolling sphere viscometry	–	86.46 mPa·s
323.15 K, 120600 kPa, Falling or rolling sphere viscometry	–	104.7 mPa·s
323.15 K, 126900 kPa, Frequency=0 MHz	0.138	–
323.15 K, 140600 kPa, Falling or rolling sphere viscometry	–	125.7 mPa·s
323.15 K, 160500 kPa, Falling or rolling sphere viscometry	–	149.6 mPa·s
323.15 K, 180500 kPa, Falling or rolling sphere viscometry	–	178.5 mPa·s
323.15 K, 200300 kPa, Falling or rolling sphere viscometry	–	210.1 mPa·s
323.15 K, 201300 kPa, Frequency=0 MHz	0.0751	–
323.15 K, 210900 kPa, Falling or rolling sphere viscometry	–	232.2 mPa·s
323.15 K, 225200 kPa, Frequency=0 MHz	0.0625	–
323.15 K, 250100 kPa, Frequency=0 MHz	0.0517	–
323.16 K, 14400 kPa, Frequency=0 MHz	0.378	–
323.16 K, 20500 kPa, Frequency=0 MHz	0.356	–
323.16 K, 25800 kPa, Frequency=0 MHz	0.338	–
323.16 K, 30200 kPa, Frequency=0 MHz	0.324	–
323.16 K, 40000 kPa, Frequency=0 MHz	0.295	–
323.16 K, 49900 kPa, Frequency=0 MHz	0.269	–
333.15 K, 100 kPa, Concentric cylinders viscometry	–	21.51 mPa·s
333.15 K, 100 kPa, Falling or rolling sphere viscometry	–	21.43 mPa·s [middle of 4 runs]
333.15 K, 700 kPa, Falling or rolling sphere viscometry	–	21.55 mPa·s
333.15 K, 10400 kPa, Falling or rolling sphere viscometry	–	23.8 mPa·s
333.15 K, 10600 kPa, Falling or rolling sphere viscometry	–	24.11 mPa·s
333.15 K, 19700 kPa, Falling or rolling sphere viscometry	–	26.33 mPa·s
333.15 K, 20300 kPa, Falling or rolling sphere viscometry	–	26.81 mPa·s
333.15 K, 30600 kPa, Falling or rolling sphere viscometry	–	29.93 mPa·s and 29.71 mPa·s
333.15 K, 40300 kPa, Falling or rolling sphere viscometry	–	32.65 mPa·s
333.15 K, 40600 kPa, Falling or rolling sphere viscometry	–	33.21 mPa·s
333.15 K, 50400 kPa, Falling or rolling sphere viscometry	–	36.22 mPa·s
333.15 K, 50600 kPa, Falling or rolling sphere viscometry	–	36.73 mPa·s
333.15 K, 60500 kPa, Falling or rolling sphere viscometry	–	40.1 mPa·s
333.15 K, 60600 kPa, Falling or rolling sphere viscometry	–	40.52 mPa·s
333.15 K, 80200 kPa, Falling or rolling sphere viscometry	–	48.82 mPa·s
333.15 K, 99600 kPa, Falling or rolling sphere viscometry	–	58.36 mPa·s
343.15 K, 100 kPa, Concentric cylinders viscometry	–	15.99 mPa·s
343.15 K, 100 kPa, Falling or rolling sphere viscometry	–	15.89 mPa·s and 15.97 mPa·s
